Measurements reported in ChEMBL document CHEMBL4627270, “Design, synthesis and biological evaluation of novel carbamates as potential inhibitors of acetylcholinesterase and butyrylcholinesterase” (Bioorg Med Chem, 2020).

How the values were obtained:
Acetylcholinesterase [1] = target: Acetylcholinesterase (Electrophorus electricus, UniProt O42275); assay: Inhibition of electric eel AChE using S-acetylthiocholine iodide as substrate preincubated for 60 mins followed by substrate addition and measured for 5 mins by Ellman's method
Cholinesterase [2] = target: Cholinesterase (Equus caballus, UniProt P81908); assay: Inhibition of equine serum BChE using S-butyrylthiocholine iodide as substrate preincubated for 60 mins followed by substrate addition and measured for 5 mins by Ellman's method
Acetylcholinesterase [3] = target: Acetylcholinesterase (Homo sapiens, UniProt P22303); assay: Inhibition of human erythrocyte AChE using S-acetylthiocholine iodide as substrate preincubated for 60 mins followed by substrate addition and measured for 5 mins by Ellman's method
Cholinesterase [4] = target: T1, Cholinesterase (Homo sapiens, UniProt P06276); assay: Inhibition of human plasma BChE using S-butyrylthiocholine iodide as substrate preincubated for 60 mins followed by substrate addition and measured for 5 mins by Ellman's method
Cholinesterase [5] = target: T1, Cholinesterase; assay: Inhibition of human plasma BChE at 2.5 to 25 nM using S-butyrylthiocholine iodide as substrate incubated prior to substrate addition and measured for 5 mins by Ellman's method; details: TDE = time-dependent effect
Cholinesterase [6] = target: T1, Cholinesterase; assay: Inhibition of human plasma BChE using S-butyrylthiocholine iodide as substrate preincubated for 20 to 60 mins followed by substrate addition and measured for 5 mins by Ellman's method
Cholinesterase [7] = target: T1, Cholinesterase; assay: Inhibition of human plasma BChE assessed as second order carbamylation rate constant using S-butyrylthiocholine iodide as substrate preincubated for 15 to 60 mins followed by substrate addition by Ellman's method
Cholinesterase [8] = target: T1, Cholinesterase; assay: Inhibition of human plasma BChE assessed as decarbamylation rate constant using S-butyrylthiocholine iodide as substrate preincubated for 15 to 60 mins followed by substrate addition by Ellman's method
Cholinesterase [9] = target: T1, Cholinesterase; assay: Potency index, ratio of test compound to rivastigmine for inhibition of human plasma BChE assessed as second order carbamylation rate constant using S-butyrylthiocholine iodide as substrate
Cholinesterase [10] = target: T1, Cholinesterase; assay: Inhibition of human plasma BChE at 15 to 100 nM using S-butyrylthiocholine iodide as substrate incubated prior to substrate measured for 5 mins by Ellman's method; details: TDE = time-dependent effect

Sequence of Acetylcholinesterase (Electrophorus electricus, UniProt O42275) (O42275 whole entry): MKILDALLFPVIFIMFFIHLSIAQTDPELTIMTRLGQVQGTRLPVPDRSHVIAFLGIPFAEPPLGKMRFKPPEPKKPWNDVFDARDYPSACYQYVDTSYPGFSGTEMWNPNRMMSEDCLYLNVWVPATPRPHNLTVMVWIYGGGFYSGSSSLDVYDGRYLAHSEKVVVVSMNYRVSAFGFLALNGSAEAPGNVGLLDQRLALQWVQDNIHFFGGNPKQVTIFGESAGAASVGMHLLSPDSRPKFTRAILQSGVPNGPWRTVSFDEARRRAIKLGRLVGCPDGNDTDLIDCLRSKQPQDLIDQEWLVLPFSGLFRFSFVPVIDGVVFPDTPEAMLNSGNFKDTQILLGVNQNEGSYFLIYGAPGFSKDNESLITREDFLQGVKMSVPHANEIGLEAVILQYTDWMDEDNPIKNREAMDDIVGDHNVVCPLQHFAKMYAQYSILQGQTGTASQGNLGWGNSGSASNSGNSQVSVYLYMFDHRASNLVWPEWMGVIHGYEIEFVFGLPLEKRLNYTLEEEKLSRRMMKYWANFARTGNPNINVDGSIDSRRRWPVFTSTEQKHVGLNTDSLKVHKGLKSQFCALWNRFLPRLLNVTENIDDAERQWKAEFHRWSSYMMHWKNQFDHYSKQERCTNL
T1 sequence (P06276 whole entry): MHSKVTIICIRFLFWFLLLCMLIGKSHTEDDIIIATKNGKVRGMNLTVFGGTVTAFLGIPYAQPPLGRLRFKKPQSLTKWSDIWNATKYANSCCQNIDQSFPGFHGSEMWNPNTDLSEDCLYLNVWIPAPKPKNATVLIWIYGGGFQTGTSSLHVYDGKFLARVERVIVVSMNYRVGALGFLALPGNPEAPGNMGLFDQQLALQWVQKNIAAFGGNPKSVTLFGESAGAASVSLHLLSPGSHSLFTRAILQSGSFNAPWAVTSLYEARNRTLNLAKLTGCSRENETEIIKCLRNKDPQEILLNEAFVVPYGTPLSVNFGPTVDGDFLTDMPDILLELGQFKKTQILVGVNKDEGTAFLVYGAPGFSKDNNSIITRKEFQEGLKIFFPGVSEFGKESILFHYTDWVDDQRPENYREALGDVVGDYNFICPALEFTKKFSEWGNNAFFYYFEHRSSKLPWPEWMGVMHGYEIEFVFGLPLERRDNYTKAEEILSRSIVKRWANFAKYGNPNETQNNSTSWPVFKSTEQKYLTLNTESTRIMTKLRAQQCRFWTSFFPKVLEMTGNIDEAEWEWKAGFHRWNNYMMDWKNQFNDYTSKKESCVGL
Sequence of Cholinesterase (Equus caballus, UniProt P81908) (P81908 whole entry): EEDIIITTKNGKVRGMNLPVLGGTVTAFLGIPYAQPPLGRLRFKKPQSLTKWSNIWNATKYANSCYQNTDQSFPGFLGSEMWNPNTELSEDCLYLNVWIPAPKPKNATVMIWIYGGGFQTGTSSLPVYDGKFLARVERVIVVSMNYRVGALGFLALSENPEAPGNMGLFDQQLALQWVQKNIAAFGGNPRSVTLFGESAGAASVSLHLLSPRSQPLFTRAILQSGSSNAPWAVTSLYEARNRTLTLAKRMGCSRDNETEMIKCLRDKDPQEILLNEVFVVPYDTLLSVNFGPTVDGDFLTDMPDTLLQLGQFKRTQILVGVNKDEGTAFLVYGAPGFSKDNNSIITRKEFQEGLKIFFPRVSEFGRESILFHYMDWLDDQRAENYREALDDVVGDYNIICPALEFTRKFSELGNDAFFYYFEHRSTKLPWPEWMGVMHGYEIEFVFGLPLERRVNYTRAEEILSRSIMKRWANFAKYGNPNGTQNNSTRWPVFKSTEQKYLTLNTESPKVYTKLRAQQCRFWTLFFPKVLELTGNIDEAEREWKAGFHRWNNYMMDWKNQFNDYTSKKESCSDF
Sequence of Acetylcholinesterase (Homo sapiens, UniProt P22303) (P22303 whole entry): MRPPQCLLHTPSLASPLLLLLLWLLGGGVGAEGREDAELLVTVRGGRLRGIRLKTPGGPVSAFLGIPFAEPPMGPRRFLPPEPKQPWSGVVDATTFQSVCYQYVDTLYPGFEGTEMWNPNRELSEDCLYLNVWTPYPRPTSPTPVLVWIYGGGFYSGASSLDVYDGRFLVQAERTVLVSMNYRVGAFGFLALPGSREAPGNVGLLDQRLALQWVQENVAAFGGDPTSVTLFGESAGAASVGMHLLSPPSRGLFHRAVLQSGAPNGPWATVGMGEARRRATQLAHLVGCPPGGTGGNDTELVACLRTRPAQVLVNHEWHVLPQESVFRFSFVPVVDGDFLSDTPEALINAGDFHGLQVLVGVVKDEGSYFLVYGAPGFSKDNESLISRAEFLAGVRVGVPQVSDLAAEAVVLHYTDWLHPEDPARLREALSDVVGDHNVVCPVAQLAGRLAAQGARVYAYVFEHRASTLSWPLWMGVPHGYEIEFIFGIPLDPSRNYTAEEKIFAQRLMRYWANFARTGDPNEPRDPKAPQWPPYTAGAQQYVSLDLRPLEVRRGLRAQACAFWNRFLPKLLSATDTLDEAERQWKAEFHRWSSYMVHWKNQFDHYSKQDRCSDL

Structure (SMILES) | IC50 (Acetylcholinesterase [1]) [nM] | IC50 (Cholinesterase [2]) [nM] | further results
CCC(C)(C)NCC(O)c1ccc(OC(=O)N(C)C)cc1 (stereo not drawn) | 15900 | 1570 | 
CN(C)C(=O)Oc1cccc(C(O)CNC2CCCCC2)c1 (stereo not drawn) | 1870 | 8 | IC50 (Acetylcholinesterase [3]): 792000 nM; IC50 (Cholinesterase [4]): 2200 nM; inhibition (Cholinesterase [5]): Tde; inhibition (Cholinesterase [6]): Dose-dependent effect; K (Cholinesterase [7]): 1110 ×10⁴ /M/min; K (Cholinesterase [8]): 18.9 ×10⁻³ /min; Ratio (Cholinesterase [9]): 10
CN(C)C(=O)Oc1cccc(C(O)CNC2CCCC2)c1 (stereo not drawn) | 1390 | 57 | 
CN(C)C(=O)Oc1cccc(C(O)CN2CCOCC2)c1 (stereo not drawn) | > 100000 | 2190 | 
CN(C)C(=O)Oc1ccc(C(O)CNC(C)(C)C)cc1 (stereo not drawn) | 15000 | 5370 | 
CN(C)C(=O)Oc1ccc(C(O)CN2CCCCC2)cc1 (stereo not drawn) | 3510 | 245 | 
CN(C)C(=O)Oc1cccc(C(O)CN2CCCC2)c1 (stereo not drawn) | 3150 | 179 | 
CN(C)C(=O)Oc1cccc(C(O)CNc2ccc(F)cc2)c1 (stereo not drawn) | 45400 | 194 | 
CN(C)C(=O)Oc1cccc(C(O)CNc2ccc(I)cc2)c1 (stereo not drawn) | 28900 | 381 | 
CN(C)C(=O)Oc1cccc(C(O)CNC(C)(C)c2ccccc2)c1 (stereo not drawn) | 7120 | 303 | 
CCN(C)C(=O)Oc1cccc([C@H](C)N(C)C)c1 |  |  | K (Cholinesterase [7]): 33.3 ×10⁴ /M/min; K (Cholinesterase [8]): 2.3 ×10⁻³ /min
CN(C)C(=O)Oc1ccc(C(O)CNC2CCCCC2)cc1 (stereo not drawn) | 655 | 27 | IC50 (Acetylcholinesterase [3]): 266000 nM; IC50 (Cholinesterase [4]): 10600 nM; inhibition (Cholinesterase [10]): Tde; inhibition (Cholinesterase [6]): Dose-dependent effect; K (Cholinesterase [7]): 206 ×10⁴ /M/min; K (Cholinesterase [8]): 14.8 ×10⁻³ /min; Ratio (Cholinesterase [9]): 20
CCC(C)(C)NCC(O)c1cccc(OC(=O)N(C)C)c1 (stereo not drawn) | 4150 | 180 | 
CN(C)C(=O)Oc1cccc(C(O)CNC(C)(C)C)c1 (stereo not drawn) | 6080 | 383 | 
C#Cc1cccc(NCC(O)c2cccc(OC(=O)N(C)C)c2)c1 (stereo not drawn) | 70500 | 154 | 
CN(C)C(=O)Oc1cccc(C(O)CN2CCCCC2)c1 (stereo not drawn) | 3740 | 97 | 
CN(C)C(=O)Oc1cccc(C(O)CNc2ccccc2)c1 (stereo not drawn) | 67500 | 282 | 
